Measurements: paper PMC12057336 (Antimicrobial Agents and Chemotherapy, 2025)

Assays:
[1] = biological target: human OATP1B1 (Homo sapiens, UniProt Q9Y6L6); conditions: 5 µM; 10 min; 37°C; vs mock cells
Method: (§1) OATP1B1-, OATP1B3-, OATP2B1-, NTCP-, OAT1-, and OAT3-transfected HEK293 cells were cultured in DMEM supplemented with 10% FBS, 100 U/mL penicillin-streptomycin at 37°C with 95% relative humidity atmosphere containing 5% CO2. All cells were seeded in 24-well plates at a density of 4 × 10^5 cells/well and cultured for 1–2 days until they reached 80%–90% confluence. Prior to the initiation of uptake studies, the cells were washed twice with HBSS buffer at 37°C. Membrane vesicles were stored at −80°C and thawed at 37°C prior to the initiation of the studies.
(§2) All uptake tests were performed in triplicates. The activities of transporter-transfected HEK293 cells were evaluated using relevant positive substrates and inhibitors. E17G (5 µM, OATP1B1 and OATP1B3), ES (2 µM, OATP2B1), ES (5 µM, OAT3), TCA (10 µM, NTCP), and PAH (20 µM, OAT1) were used as substrates of the transporters. The inhibitors for each transporter were rifampicin (200 µM, OATP1B1 and OATP1B3), erlotinib (10 µM, OATP2B1), CsA (20 µM, NTCP), and probenecid (200 µM, OAT1 and OAT3).
(§3) The cells were washed three times with ice-cold HBSS buffer. […] The total protein concentration was measured using a BCA Protein Assay Kit. The uptake rates of HEK293-OATP1B1, HEK293-OATP1B3, HEK293-OATP2B1, HEK293-NTCP, HEK293-OAT1, HEK293-OAT3, and mock cells were calculated. […]

[2] = biological target: human OATP1B3 (Homo sapiens, UniProt Q9NPD5); conditions: 5 µM; 10 min; 37°C; vs mock cells
Sequence of human OATP1B3 (Q9NPD5 whole entry): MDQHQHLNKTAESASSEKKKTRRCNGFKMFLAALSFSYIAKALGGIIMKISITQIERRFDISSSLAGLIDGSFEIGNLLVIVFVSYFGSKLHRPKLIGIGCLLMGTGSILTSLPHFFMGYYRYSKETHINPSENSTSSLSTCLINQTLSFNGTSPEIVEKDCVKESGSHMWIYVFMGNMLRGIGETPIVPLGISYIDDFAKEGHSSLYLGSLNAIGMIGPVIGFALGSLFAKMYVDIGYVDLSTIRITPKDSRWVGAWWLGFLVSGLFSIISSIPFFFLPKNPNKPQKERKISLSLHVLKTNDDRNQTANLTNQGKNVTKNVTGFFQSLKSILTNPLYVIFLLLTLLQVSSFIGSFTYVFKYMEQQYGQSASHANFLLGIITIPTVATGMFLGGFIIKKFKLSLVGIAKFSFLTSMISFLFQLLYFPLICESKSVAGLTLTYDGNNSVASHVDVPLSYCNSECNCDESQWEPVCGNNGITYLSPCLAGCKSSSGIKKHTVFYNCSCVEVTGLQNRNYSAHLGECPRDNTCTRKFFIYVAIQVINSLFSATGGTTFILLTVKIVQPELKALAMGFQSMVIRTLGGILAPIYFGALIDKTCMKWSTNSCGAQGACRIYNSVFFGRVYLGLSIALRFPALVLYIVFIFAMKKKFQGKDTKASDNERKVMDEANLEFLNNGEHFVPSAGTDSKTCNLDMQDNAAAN
Method: as §1, §2, §3

[3] = rats; cited from earlier work
[4] = tested on: MATE1; conditions: cited from earlier work
[5] = tested on: OATP2B1; conditions: cited from earlier work

Sequence of human OATP1B1 (Q9Y6L6 whole entry): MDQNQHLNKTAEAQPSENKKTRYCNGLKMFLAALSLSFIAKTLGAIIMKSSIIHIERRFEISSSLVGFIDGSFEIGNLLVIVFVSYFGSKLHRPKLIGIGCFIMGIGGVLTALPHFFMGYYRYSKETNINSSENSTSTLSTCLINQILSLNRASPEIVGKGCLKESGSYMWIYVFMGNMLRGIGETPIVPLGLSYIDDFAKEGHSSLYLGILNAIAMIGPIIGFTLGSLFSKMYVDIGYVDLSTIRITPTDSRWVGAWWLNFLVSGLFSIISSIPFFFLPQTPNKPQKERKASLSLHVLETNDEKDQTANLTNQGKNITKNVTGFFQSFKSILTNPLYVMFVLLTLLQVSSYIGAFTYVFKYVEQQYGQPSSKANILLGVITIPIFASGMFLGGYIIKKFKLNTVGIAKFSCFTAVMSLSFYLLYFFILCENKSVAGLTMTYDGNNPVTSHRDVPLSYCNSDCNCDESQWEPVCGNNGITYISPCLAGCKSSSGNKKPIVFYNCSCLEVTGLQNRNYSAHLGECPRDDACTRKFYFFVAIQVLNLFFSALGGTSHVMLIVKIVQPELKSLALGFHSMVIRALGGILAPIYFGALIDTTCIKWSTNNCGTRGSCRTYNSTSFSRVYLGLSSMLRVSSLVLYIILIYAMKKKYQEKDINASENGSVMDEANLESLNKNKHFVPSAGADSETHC

CC(=O)NC[C@H]1CN(c2ccc(N3CCOCC3)c(F)c2)C(=O)O1 [Linezolid]
substrate for OATP1B1 [1]: not a substrate | substrate for OATP1B3 [2]: not a substrate | mean recovery of linezolid radioactivity in excreta [3]: over 95% | substrate for MATE1 [4]: not a substrate | inhibitor of OATP2B1 [5]: inhibitor
